Results as given in publication PMC6100415, “Hepatic Metabolism of Sakuranetin and Its Modulating Effects on Cytochrome P450s and UDP-Glucuronosyltransferases” (Molecules : A Journal of Synthetic Chemistry and Natural …, 2018).
Read-outs that look alike come from different tables or passages of the source.

Columns and labels:
CYP3A4 = CYP3A4 (Homo sapiens, UniProt P08684); assay: CYP inhibition in human liver microsomes, testosterone 6β-hydroxylation (TSTHY); type: in vitro ADME; conditions: pH 7.4, probe testosterone (6β-hydroxylation, TSTHY)
From the text: (§1) The DAD was set at 280 nm.

UGT1A4 = molecular target: T1, UGT1A4 (Homo sapiens, UniProt P22310); assay: UGT inhibition in human liver microsomes, trifluoperazine N-glucuronidation (TFPG); type: in vitro ADME; conditions: pH 7.4, probe trifluoperazine (200 μM)
T1 construct: The typical incubation mixture contained human liver microsomes (0.5 mg/mL) along with SKN (10 μM); tissue BD Gentest; host or cells: human liver microsomes
T1 sequence (P22310 29-534): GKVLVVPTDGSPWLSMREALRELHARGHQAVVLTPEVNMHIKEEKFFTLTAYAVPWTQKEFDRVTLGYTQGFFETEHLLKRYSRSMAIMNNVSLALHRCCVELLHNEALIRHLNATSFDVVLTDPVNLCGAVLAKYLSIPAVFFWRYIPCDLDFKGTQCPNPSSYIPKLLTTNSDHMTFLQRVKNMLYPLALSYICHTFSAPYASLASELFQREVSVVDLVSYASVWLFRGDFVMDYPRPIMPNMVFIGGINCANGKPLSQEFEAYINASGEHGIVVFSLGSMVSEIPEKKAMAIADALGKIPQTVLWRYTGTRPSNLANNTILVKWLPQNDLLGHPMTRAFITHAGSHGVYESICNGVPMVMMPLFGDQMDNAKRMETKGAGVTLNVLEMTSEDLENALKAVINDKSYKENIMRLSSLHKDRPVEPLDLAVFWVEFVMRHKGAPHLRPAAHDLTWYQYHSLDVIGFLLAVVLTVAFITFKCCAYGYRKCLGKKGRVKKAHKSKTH
Description: (§2) The formation of a glucuronide conjugate from an isozyme-specific substrate (200 μM, Table 5) was examined to determine UGT activity levels in human liver microsomes. The typical incubation mixture contained human liver microsomes (0.5 mg/mL) along with SKN (10 μM), and MgCl2 (10 mM) in 50 mM Tris-HCl buffer (pH 7.4). The metabolic reaction was initiated by adding UPDGA (2 mM) and stopped by adding an equal volume of ice-cold methanol. […] The conditions used for the operation and analysis of the HPLC-DAD and LC-ESI-MS are provided in the Supplementary Materials and Table S3.
(§3) The solvent flow rate was set at 0.2 mL/min, and the column temperature was set at 35 °C. The LTQ instrument was operated in negative ion electron spray mode at an ion spray voltage of −4.2 kV and a source temperature of 275 °C. The sheath gas flow rate was 35 arb, and the aux gas flow rate was 5 arb. The MS conditions used to detect glucuronides via selected ion monitoring scan mode are summarized in Supplementary Materials Table S3.

UGT1A1 = molecular target: T2, UGT1A1 (Homo sapiens, UniProt P22309); assay: UGT inhibition in human liver microsomes, 17β-estradiol 3-O-glucuronidation (ESG); type: in vitro ADME; conditions: pH 7.4, probe 17β-estradiol (200 μM)
T2 construct: The typical incubation mixture contained human liver microsomes (0.5 mg/mL) along with SKN (10 μM); tissue BD Gentest; host or cells: human liver microsomes
T2 sequence (P22309 26-533): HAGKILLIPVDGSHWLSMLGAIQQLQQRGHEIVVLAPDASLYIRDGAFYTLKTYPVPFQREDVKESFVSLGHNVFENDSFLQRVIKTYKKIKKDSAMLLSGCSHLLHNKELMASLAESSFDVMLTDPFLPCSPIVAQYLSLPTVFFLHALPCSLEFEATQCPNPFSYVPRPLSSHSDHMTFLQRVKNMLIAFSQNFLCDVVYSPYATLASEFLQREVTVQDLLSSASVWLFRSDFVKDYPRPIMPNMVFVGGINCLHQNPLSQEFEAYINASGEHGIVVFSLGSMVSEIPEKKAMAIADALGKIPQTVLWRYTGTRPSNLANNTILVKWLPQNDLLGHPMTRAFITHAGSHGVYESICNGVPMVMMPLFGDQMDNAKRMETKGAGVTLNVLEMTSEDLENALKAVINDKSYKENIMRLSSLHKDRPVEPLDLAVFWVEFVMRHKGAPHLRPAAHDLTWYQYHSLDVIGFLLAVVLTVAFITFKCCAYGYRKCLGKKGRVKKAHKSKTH
Description: as §2, §3

CYP2B6 = molecular target: T3, CYP2B6 (Homo sapiens, UniProt P20813); assay: CYP inhibition in human liver microsomes, bupropion hydroxylation (BPHY); type: in vitro ADME; conditions: pH 7.4, probe bupropion (hydroxylation, BPHY)
T3 sequence (P20813 1-491): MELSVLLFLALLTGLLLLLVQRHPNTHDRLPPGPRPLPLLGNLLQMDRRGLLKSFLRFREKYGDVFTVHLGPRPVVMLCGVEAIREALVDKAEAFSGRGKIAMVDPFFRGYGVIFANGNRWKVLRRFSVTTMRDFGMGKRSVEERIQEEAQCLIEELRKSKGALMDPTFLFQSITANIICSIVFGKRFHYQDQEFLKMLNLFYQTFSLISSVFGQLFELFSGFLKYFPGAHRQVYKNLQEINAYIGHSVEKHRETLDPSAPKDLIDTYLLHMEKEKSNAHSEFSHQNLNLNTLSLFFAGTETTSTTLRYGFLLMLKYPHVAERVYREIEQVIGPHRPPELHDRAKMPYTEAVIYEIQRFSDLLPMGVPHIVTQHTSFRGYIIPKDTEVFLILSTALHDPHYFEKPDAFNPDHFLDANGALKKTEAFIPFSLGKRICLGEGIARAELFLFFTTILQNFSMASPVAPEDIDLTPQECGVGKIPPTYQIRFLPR
From the text: as §1

CYP2D6 = CYP2D6 (Homo sapiens, UniProt P10635); assay: CYP inhibition in human liver microsomes, dextromethorphan O-demethylation (DEXOD); type: in vitro ADME; conditions: pH 7.4, probe dextromethorphan (O-demethylation, DEXOD)
From the text: as §1

CYP2C9 [1] = molecular target: T4, CYP2C9 (Homo sapiens, UniProt P11712); assay: in vitro; conditions: human liver microsomes, pH 7.4, probe diclofenac (4′-hydroxylation, DCHY), 200 µM
Description: (§4) The formation of a metabolite from a CYP isozyme-specific phenotyping reaction (Table 4) was monitored. Each substrate (200 μM), along with SKN (10 μM), was incubated with human liver microsomes (0.5 mg/mL) and an NADPH-generating system in 0.1 M potassium phosphate buffer (pH 7.4) at 37 °C for 60 min in a total volume of 200 μL in a shaking water bath. The metabolic reaction was initiated by adding NADP^+ (1 mM) and stopped by adding 10 μL of trichloroacetic acid. In some experiments, the microsomes were pre-incubated with SKN for 15 min prior to the addition of the cofactor, in order to determine the time-dependent inhibitory effect. […] In contrast, co-incubation refers to experiments in which microsomes and cofactors were incubated in the presence of SKN. After centrifugation of incubation samples at 12,000× g for 15 min at 4 °C, the supernatant (20 μL) was injected into an HPLC-DAD system to analyze the metabolites formation (Supplementary Materials).
(§5) The DAD was set at 248 nm for phenacetin O-deethylation (PCOD), 298 nm for bupropion hydroxylation (BPHY), 276 nm for diclofenac 4′-hydroxylation (DCHY), 230 nm for tolbutamide 6-hydroxylation (TOLHY), 280 nm for dextromethorphan O-demethylation (DEXOD), and 250 nm for testosterone 6β-hydroxylation (TSTHY) and testosterone β-D-glucuronidation (TSTG).

CYP2C9 [2] = molecular target: T4, CYP2C9; assay: in vitro; conditions: human liver microsomes, pH 7.4, probe tolbutamide (6-hydroxylation, TOLHY), 200 µM
Description: as §4, §5

[3] = liver microsomes, 200 μM, SKN 10 μM, 15 min pre-incubation, read-out: % Inhibition in Pre-Incubation
[4] = liver microsomes, 200 μM, SKN 10 μM, human liver microsomes, read-out: % Inhibition in Co-Incubation
[5] = SKN 10 μM, 15 min pre-incubation, read-out: % Inhibition in Pre-Incubation
[6] = SKN 10 μM, read-out: % Inhibition in Co-Incubation
[7] = human liver microsomes, 200 µM, inhibitor 10 M [sic], human liver microsomes 0.5 mg/mL, read-out: Inhibition (%)
[8] = inhibitor 10 µM, human liver microsomes 0.5 mg/mL, read-out: Inhibition (%)

Chain of CYP3A4 (P08684 whole entry): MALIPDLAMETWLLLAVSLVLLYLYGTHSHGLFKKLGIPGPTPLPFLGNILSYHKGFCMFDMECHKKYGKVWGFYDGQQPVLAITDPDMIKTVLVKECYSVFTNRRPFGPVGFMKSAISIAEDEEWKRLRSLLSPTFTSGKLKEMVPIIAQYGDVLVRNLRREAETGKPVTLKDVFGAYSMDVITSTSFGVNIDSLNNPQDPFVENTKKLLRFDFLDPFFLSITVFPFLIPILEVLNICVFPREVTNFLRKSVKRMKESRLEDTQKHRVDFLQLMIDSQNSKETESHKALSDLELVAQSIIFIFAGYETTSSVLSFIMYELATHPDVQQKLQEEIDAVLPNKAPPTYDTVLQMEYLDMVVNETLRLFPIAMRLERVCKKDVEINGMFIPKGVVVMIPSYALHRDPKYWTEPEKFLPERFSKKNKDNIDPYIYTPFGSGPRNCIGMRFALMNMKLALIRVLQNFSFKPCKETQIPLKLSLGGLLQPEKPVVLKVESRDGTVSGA
Chain of CYP2D6 (P10635 whole entry): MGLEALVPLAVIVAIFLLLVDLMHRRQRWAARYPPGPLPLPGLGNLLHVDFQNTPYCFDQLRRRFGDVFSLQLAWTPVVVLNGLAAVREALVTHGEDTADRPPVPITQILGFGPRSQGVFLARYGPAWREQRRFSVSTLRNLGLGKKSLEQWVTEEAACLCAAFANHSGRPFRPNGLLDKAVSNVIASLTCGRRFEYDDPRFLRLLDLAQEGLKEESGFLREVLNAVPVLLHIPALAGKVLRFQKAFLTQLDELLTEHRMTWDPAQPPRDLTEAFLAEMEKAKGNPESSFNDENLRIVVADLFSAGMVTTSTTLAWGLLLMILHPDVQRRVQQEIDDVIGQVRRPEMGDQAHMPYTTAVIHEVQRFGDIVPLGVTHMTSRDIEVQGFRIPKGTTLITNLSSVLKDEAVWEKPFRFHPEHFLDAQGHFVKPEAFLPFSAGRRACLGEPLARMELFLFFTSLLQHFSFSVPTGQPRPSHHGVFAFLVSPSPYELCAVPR
T4 sequence (P11712 whole entry): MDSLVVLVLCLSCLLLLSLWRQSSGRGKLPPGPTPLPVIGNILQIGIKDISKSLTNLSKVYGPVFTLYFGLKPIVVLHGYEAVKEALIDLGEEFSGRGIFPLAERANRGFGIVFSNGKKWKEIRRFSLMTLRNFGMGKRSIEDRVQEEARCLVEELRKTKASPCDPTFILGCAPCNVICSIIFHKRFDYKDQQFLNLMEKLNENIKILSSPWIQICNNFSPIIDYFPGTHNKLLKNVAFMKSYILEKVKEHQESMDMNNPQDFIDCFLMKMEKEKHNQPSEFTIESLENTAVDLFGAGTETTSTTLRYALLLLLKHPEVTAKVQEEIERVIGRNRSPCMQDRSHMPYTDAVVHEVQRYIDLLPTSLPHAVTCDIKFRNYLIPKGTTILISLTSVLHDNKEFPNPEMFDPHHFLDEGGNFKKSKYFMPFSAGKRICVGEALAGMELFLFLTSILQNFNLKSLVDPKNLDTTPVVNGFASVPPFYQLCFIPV

Structure (SMILES)	inhibition at 60 min, 10 µM (CYP3A4; [3])	inhibition at 60 min, 10 µM (CYP3A4; [4])	inhibition at 10 μM (UGT1A4; [5])	inhibition at 10 μM (UGT1A4; [6])	inhibition at 10 μM (UGT1A1; [5])	inhibition at 10 μM (UGT1A1; [6])	inhibition at 60 min, 10 µM (CYP2B6; [3])	inhibition at 60 min, 10 µM (CYP2B6; [4])	inhibition at 60 min, 10 µM (CYP2D6; [3])	inhibition at 60 min, 10 µM (CYP2D6; [4])	inhibition at 60 min, 10 µM (CYP3A4; [7])	inhibition at 10 μM (UGT1A4; [8])	inhibition at 10 μM (UGT1A1; [8])	inhibition at 60 min, 10 µM (CYP2C9 [1])	inhibition at 60 min, 10 µM (CYP2C9 [2])	inhibition at 60 min, 10 µM (CYP2B6; [7])	inhibition at 60 min, 10 µM (CYP2D6; [7])
COc1cc(O)c2c(c1)OC(c1ccc(O)cc1)CC2=O (racemic) [SKN, (+/−) 7-O-methylnaringenin]	12.6 ± 2.8%	15.6 ± 0.6%	8.7 ± 1.4%	15.3 ± 3.8%	1.5 ± 2.1%	0.4 ± 0.5%	0.8 ± 0.2%	-0.6 ± 0.9%	3.5 ± 2.6%	-0.6 ± 3.1%							
O=C1C[C@@H](c2ccc(O)c(O)c2)Oc2cc(O)cc(O)c21 [Eriodictyol, 3′-hydroxynaringenin]											3.2 ± 0.7%	13.7 ± 3.8%	20.8 ± 3.4%	1 ± 0.7%	7.7 ± 0.4%	16.1 ± 0.9%	5.6 ± 3.6%
O=C1C[C@@H](c2ccc(O)cc2)Oc2cc(O)cc(O)c21 [Naringenin]											39.6 ± 2.2%	9.6 ± 3.1%	10.8 ± 3%	9.1 ± 1.8%	12 ± 0.7%	24 ± 2.2%	11.9 ± 1.4%
